The values that follow come from US9169205B2, “Pyrrolidine derivatives, pharmaceutical compositions and uses thereof” (Boehringer Ingelheim International GmbH, priority 2012, dated 2015).

Structures are written as SMILES. pIC50: −log10 of the molar value.

In the assay the target is human ACC2 (Homo sapiens (Human), UniProt O00763). Briefly: ACC2 assay (spectrophotometric 384 well assay, NADH-linked kinetic method). The assay is classed as biochemical. The settings on record: hACC2 construct lacking 128 N-terminal amino acids, 25° C., 340 nm. As for the experimental part: Spectrophotometric 384 Well Assay
Chain of human ACC2 (O00763 129-2458): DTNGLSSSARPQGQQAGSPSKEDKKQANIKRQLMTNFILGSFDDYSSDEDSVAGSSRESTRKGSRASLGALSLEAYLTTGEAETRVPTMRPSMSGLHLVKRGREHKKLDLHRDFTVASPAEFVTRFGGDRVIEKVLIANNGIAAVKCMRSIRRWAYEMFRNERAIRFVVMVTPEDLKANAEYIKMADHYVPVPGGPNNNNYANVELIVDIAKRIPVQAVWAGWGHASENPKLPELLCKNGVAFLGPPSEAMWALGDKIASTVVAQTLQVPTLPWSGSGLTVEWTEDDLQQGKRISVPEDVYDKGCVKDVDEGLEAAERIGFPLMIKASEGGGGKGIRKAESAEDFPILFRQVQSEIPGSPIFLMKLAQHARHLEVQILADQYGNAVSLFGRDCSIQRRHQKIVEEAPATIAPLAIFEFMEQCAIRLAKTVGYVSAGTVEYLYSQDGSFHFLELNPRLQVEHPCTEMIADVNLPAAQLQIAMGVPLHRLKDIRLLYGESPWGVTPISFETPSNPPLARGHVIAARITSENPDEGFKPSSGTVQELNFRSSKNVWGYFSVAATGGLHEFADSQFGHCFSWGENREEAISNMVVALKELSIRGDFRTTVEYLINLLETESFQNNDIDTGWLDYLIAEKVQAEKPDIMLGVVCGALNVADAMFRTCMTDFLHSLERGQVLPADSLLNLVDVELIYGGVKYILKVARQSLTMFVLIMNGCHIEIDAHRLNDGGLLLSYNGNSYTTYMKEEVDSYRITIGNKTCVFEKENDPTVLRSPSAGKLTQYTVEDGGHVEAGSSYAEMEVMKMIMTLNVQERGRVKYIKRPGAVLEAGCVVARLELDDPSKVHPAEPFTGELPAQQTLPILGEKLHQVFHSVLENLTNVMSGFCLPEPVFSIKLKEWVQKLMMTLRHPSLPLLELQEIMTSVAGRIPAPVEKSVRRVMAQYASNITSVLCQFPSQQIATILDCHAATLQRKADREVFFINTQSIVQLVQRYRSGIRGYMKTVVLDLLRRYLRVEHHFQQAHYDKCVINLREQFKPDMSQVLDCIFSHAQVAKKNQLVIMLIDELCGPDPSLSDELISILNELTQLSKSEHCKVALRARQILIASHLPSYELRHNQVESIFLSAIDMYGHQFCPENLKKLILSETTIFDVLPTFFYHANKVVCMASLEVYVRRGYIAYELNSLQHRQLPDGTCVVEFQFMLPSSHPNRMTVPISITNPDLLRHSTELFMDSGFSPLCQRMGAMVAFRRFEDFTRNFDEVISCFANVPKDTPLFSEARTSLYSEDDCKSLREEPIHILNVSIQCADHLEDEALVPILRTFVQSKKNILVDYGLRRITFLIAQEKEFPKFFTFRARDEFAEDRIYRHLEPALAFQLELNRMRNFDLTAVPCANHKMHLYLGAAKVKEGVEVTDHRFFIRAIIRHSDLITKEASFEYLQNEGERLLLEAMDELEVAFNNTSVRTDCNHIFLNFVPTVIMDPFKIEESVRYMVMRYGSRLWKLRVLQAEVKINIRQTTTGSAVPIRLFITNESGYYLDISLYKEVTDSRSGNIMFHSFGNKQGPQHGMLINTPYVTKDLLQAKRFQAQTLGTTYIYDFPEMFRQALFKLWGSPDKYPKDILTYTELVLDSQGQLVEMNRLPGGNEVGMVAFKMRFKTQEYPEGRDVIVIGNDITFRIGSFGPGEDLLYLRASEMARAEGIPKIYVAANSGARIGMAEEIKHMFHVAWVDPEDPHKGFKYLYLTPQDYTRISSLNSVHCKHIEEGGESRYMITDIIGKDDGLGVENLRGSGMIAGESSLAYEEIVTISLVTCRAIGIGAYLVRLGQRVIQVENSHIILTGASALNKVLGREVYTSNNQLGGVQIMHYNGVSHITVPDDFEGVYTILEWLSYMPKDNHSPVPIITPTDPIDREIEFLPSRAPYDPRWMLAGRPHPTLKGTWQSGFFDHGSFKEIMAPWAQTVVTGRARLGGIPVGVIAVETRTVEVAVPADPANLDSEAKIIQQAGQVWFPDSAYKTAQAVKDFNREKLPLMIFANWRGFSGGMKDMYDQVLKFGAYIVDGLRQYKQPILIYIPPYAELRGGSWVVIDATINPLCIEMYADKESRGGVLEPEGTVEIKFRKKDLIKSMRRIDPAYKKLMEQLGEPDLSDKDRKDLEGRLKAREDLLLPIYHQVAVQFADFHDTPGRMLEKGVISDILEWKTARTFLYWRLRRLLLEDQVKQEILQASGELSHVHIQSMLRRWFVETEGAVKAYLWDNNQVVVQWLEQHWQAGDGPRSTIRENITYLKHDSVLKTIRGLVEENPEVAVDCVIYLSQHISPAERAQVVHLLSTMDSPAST
Malonyl CoA formation by acetyl CoA carboxylases is stoichometrically linked to the consumption of ATP. ACC2 activity is measured in a NADH-linked kinetic method measuring ADP generated during the ACC reaction using a coupled lactate dehydrogenase/pyruvate kinase reaction.
The protein is then expressed in insect cells using a baculoviral expression system. Protein purification is performed by anion exchange.
All compounds are dissolved in dimethyl sulfoxide (DMSO) to a concentration of 10 mM.
The enzymatic reaction is then started by addition of a mixture of NADH, acetyl Coenzyme A (both 200 μM f.c.) and ATP (500 uM f.c.). The decrease of the optical density (slope S) is then determined at 25° C. at a wavelength of 340 nm over 15 minutes in a spectrophotometric reader.
Each assay microtiter plate contains wells with vehicle instead of compound as controls for the non-inhibited enzyme (100% CTL; ‘HIGH’) and wells without acetyl-CoA as controls for non-specific NADH degradation (0% CTL; ‘LOW’).
A word on the pIC50: it is −log10 of the IC50, conventionally taken in molar units. A lower pIC50 goes with a large IC50. `CC(=O)N[C@@H](C)c1ccc(OC2CCN(c3cccc(OC(F)(F)F)c3)C2)cc1` (stereo partly drawn) [Example 1.61] had a pIC50 of 6.07.

In the case of `CC(=O)N[C@@H](C)c1ccc(OC2CCN(c3cccc(C)c3)C2)cc1` (stereo partly drawn) [Example 1.55], the pIC50 is 6.67.

For the compound `CC(=O)N[C@@H](C)c1ccc(OC2CCN(c3cc4c(cc3F)OCCO4)C2)cc1` (stereo partly drawn) [Example 1.46], the pIC50 was 6.65.

As to `CC(=O)N[C@@H](C)c1ccc(OC2CCN(c3ccc4c(c3)OCCO4)C2)cc1` (stereo partly drawn) [Example 1.7], the pIC50 was 6.64.

As to `CC(=O)N[C@@H](C)c1ccc(OC2CCN(c3ccc(F)c(F)c3)C2)cc1` (stereo partly drawn) [Example 1.28], the pIC50 is 6.17.

Turning to `CC(=O)N[C@@H](C)c1ccc(OC2CCN(c3ccc(Oc4cnccn4)cc3)C2)cc1` (stereo partly drawn) [Example 1.69], the pIC50 was 6.36.

`CC(=O)Nc1cccc(C(=O)N[C@@H](C)c2ccc(O[C@@H]3CCN(c4ccc(OCC5CC5)cc4)C3)cc2)c1C` [Example 2.4] gave a pIC50 of 6.29.

As to `Cc1c(C(=O)N[C@@H](C)c2ccc(O[C@@H]3CCN(c4ccc(OCC5CC5)cc4)C3)cc2)cnn1C` [Example 2.47], the pIC50 was 6.41.

`C[C@H](NC(=O)c1cncs1)c1ccc(O[C@@H]2CCN(c3ccc(OCC4CC4)cc3)C2)cc1` [Example 2.38] had a pIC50 of 7.77.

As to `Cc1cc(CC(=O)N[C@@H](C)c2ccc(O[C@@H]3CCN(c4ccc(OCC5CC5)cc4)C3)cc2)on1` [Example 2.9], the pIC50 is 6.86. This pIC50 is 0.91 log units lower than that of the compound before.

`COc1cc(F)c(N2CCC(Oc3ccc([C@H](C)NC(C)=O)cc3)C2)cc1F` (stereo partly drawn) [Example 1.92] showed a pIC50 of 6.42. Compared with the last compound, the pIC50 is 0.44 log units lower.

`CC(=O)N[C@@H](C)c1ccc(OC2CCN(c3ccc(OCCCF)cc3C)C2)cc1` (stereo partly drawn) [Example 1.88] gave a pIC50 of 6.99. Compared with the last compound, the pIC50 is 0.57 log units higher.

For `C[C@H](NC(=O)c1ccnnc1)c1ccc(O[C@@H]2CCN(c3ccc(OCC4CC4)cc3)C2)cc1` [Example 2.36], the negative logarithm of the IC50 (pIC50) was 6.70.

On to `C[C@H](NC(=O)N1CCOCC1)c1ccc(OC2CCN(c3ccc(OCC4CC4)cc3)C2)cc1` (stereo partly drawn) [Example 3.5], for which the pIC50 is 6.70.

With `C[C@H](NC(=O)c1cnn(C)c1Cl)c1ccc(O[C@@H]2CCN(c3ccc(OCC4CC4)cc3)C2)cc1` [Example 2.44], the pIC50 is 7.26.

As to `CC(=O)NC(C)c1ccc(OC2CCN(c3ccc(OCC4CC4)cc3)C2)nc1` (stereo not drawn) [Example 1.56], the pIC50 is 6.53.

As to `C[C@H](O)C(=O)N[C@@H](C)c1ccc(O[C@@H]2CCN(c3ccc(OCC4CC4)cc3)C2)cc1` [Example 2.30], the pIC50 is 6.10.

Turning to `CCOC1CN(c2ccc(OCC3CC3)cc2)CC1Oc1ccc([C@H](C)NC(C)=O)cc1` (stereo partly drawn) [Example 1.74], the pIC50 is 5.78.

`CC(=O)N[C@@H](C)c1ccc(OC2CCN(c3ccc(OC4CCOC4)cc3)C2)cc1` (stereo partly drawn) [Example 1.71] gave a pIC50 of 6.57.

For `CC(=O)N[C@@H](C)c1ccc(OC2CCN(c3ccc(OC(C)C)cc3C)C2)cc1` (stereo partly drawn) [Example 1.85], the pIC50 is 6.65.

Compound `CC(=O)N[C@@H](C)c1ccc(OC2CCN(c3ccc(OCC(C)(C)F)cc3)C2)cc1` (stereo partly drawn) [Example 1.89] showed a pIC50 of 6.65.

Compound `CCCOc1ccc(N2CCC(Oc3ccc([C@H](C)NC(C)=O)cc3)C2)c(OC)c1` (stereo partly drawn) [Example 1.9] gave a pIC50 of 5.94.

With `CC(=O)N[C@@H](C)c1ccc(OC2CCN(c3ccc4c(c3)OC(F)(F)O4)C2)cc1` (stereo partly drawn) [Example 1.80], the pIC50 is 6.24.

In turn, `CC(C#N)C(=O)N[C@@H](C)c1ccc(O[C@@H]2CCN(c3ccc(OCC4CC4)cc3)C2)cc1` (stereo partly drawn) [Example 2.23] gave a pIC50 of 7.25.

`CC(=O)N[C@@H](C)c1ccc(OC2CCN(c3ccc(OCCC(F)F)cc3)C2)nc1` (stereo partly drawn) [Example 1.102] gave a pIC50 of 6.67.

Consider `CC(=O)N[C@@H](C)c1ccc(OC2CCN(c3cc(C(F)F)ccc3F)C2)cc1` (stereo partly drawn) [Example 1.94], for which the pIC50 was 6.66.

Compound `CC(=O)N[C@@H](C)c1ccc(OC2CCN(c3ccc(OCC4CC4)cc3F)C2)cc1` (stereo partly drawn) [Example 1.10] gave a pIC50 of 6.64.

In turn, `CC(=O)NC(C)c1ccc(OC2CCN(c3ccc(OCC4CC4)cc3)C2)c(F)c1` (stereo not drawn) [Example 7.3] showed a pIC50 of 6.70.

In turn, `Cc1cc(OC2CC2)ccc1N1CC[C@@H](Oc2ccc([C@H](C)NC(=O)CO)cc2)C1` [Example 2.58] had a pIC50 of 6.13.

`CC(=O)N[C@@H](C)c1ccc(OC2CCN(c3ccc(OCCCF)cc3)C2)cc1` (stereo partly drawn) [Example 1.70]: the negative logarithm of the IC50 (pIC50) was 7.28.

The compound `CC(=O)N[C@@H](C)c1ccc(O[C@@H]2CCN(c3cccc(OCC4CC4)c3)C2)cc1` [Example 1.11] had a pIC50 of 6.65.

Turning to `C[C@H](NC(=O)c1cnc(N)s1)c1ccc(O[C@@H]2CCN(c3ccc(OCC4CC4)cc3)C2)cc1` [Example 2.43], the pIC50 is 6.80. This pIC50 and that of the compound before are within 0.2 log units of each other.

In turn, `C[C@H](NC(=O)c1cn(C)nc1C(F)F)c1ccc(O[C@@H]2CCN(c3ccc(OCC4CC4)cc3)C2)cc1` [Example 2.45] showed a pIC50 of 6.00.

As to `C[C@H](NC(=O)N(C)C)c1ccc(OC2CCN(c3ccc(OC4CC4)cc3)C2)cc1` (stereo partly drawn) [Example 1.64], the pIC50 was 6.97.

Compound `Cc1cc(OC2CC2)ccc1N1CCC(Oc2ccc([C@H](C)NC(=O)N3CCOCC3)cc2)C1` (stereo partly drawn) [Example 3.13] showed a pIC50 of 6.06.

With `CC(C)Oc1ccc(N2CC[C@@H](Oc3ccc([C@H](C)NC(=O)C(F)(F)F)cc3)C2)cc1` [Example 2.19], the pIC50 is 6.91.

`CCOc1ccc(N2CC[C@H](Oc3ccc([C@H](C)NC(C)=O)cc3)C2)cc1` [Example 1.3]: the pIC50 is 6.58.

Compound `C[C@H](NC(=O)C(F)F)c1ccc(O[C@@H]2CCN(c3ccc(OCC4CC4)cc3)C2)cc1` [Example 2.25] gave a pIC50 of 7.42.

On to `C[C@H](NC(=O)CC#N)c1ccc(O[C@@H]2CCN(c3ccc(OCC4CC4)cc3)C2)cc1` [Example 2.31], for which the pIC50 was 7.15.

Regarding `CC(=O)N[C@@H](C)c1ccc(OC2CCN(c3cc(Cl)ccc3C)C2)cc1` (stereo partly drawn) [Example 1.60], the pIC50 is 6.38.

For the compound `CC(=O)N[C@@H](C)c1ccc(OC2CCN(c3ccc(OC4CC4)cc3C)C2)cc1` (stereo partly drawn) [Example 1.25], the pIC50 is 7.07.

`CC(=O)N[C@@H](C)c1ccc(OC2CCN(c3ccc(C)c(Cl)c3)C2)cc1` (stereo partly drawn) [Example 1.52] gave a pIC50 of 6.22. Against the preceding compound, the pIC50 is 0.85 log units lower.

`CC(=O)N[C@@H](C)c1ccc(OC2CCN(c3ccc(OCC4(C(F)(F)F)CC4)cc3)C2)cc1` (stereo partly drawn) [Example 1.81]: the pIC50 is 6.09.

Take `C[C@H](NC(=O)c1ccon1)c1ccc(O[C@@H]2CCN(c3ccc(OCC4CC4)cc3)C2)cc1` [Example 2.34]: the pIC50 was 7.15.

As to `CCCOc1ccc(N2CCC(Oc3ccc([C@H](C)NC(C)=O)cc3)C2)cc1` (stereo partly drawn) [Example 1.8], the pIC50 is 6.85.

`CC(=O)N[C@@H](C)c1ccc(OC2CCN(c3ccc(Oc4ccncc4)cc3)C2)cc1` (stereo partly drawn) [Example 1.66] gave a pIC50 of 6.10.

For the compound `Cc1cc(OC2CC2)ccc1N1CC[C@@H](Oc2ccc([C@H](C)NC(=O)c3cncs3)cc2)C1` [Example 2.60], the negative logarithm of the IC50 (pIC50) was 6.59.

Consider `CC(=O)N[C@@H](C)c1ccc(OC2CCN(c3ccc(OCC4CC(F)(F)C4)cc3)C2)cc1` (stereo partly drawn) [Example 1.96], for which the pIC50 is 7.21.

In turn, `CC(=O)N[C@@H](C)c1ccc(OC2CCN(c3cccc(F)c3C)C2)cc1` (stereo partly drawn) [Example 1.31] had a pIC50 of 6.04. Against the preceding compound, the pIC50 is 1.17 log units lower.

`COc1ccccc1C(=O)N[C@@H](C)c1ccc(O[C@@H]2CCN(c3ccc(OCC4CC4)cc3)C2)cc1` [Example 2.5] showed a pIC50 of 6.10.

`COc1ccc(N2CCC(Oc3ccc([C@H](C)NC(C)=O)cc3)C2)c(F)c1` (stereo partly drawn) [Example 1.22] gave a pIC50 of 6.25.

For `CNC(=O)c1cccc(C(=O)N[C@@H](C)c2ccc(O[C@@H]3CCN(c4ccc(OCC5CC5)cc4)C3)cc2)n1` [Example 2.14], the pIC50 is 6.15.

`CC(=O)N[C@@H](C)c1ccc(OC2CCN(c3ccc(OC4CCOC4)cc3F)C2)cc1` (stereo partly drawn) [Example 1.42]: the pIC50 was 6.23.

For `Cc1nc(N)sc1C(=O)N[C@@H](C)c1ccc(O[C@@H]2CCN(c3ccc(OCC4CC4)cc3)C2)cc1` [Example 2.40], the pIC50 is 6.42.

On to `CNC(=O)N[C@@H](C)c1ccc(OC2CCN(c3ccc(OCC4CC4)cc3)C2)cc1` (stereo partly drawn) [Example 3.8], for which the pIC50 was 7.14.

With `COC(=O)N[C@@H](C)c1ccc(O[C@@H]2CCN(c3ccc(OCC4CC4)cc3)C2)cc1` [Example 5.1, Methyl-(S)-1-(4-((R)-1-(4-(cyclopropylmethoxy)phenyl)pyrrolidin-3-yloxy)phenyl)-ethylcarbamate], the pIC50 is 7.31.

With `C[C@H](NC(=O)C1CC[C@@H](N)C1)c1ccc(O[C@@H]2CCN(c3ccc(OCC4CC4)cc3)C2)cc1` (stereo partly drawn) [Example 9], the pIC50 is 5.76. Compared with the last compound, the pIC50 is 1.55 log units lower.

As to `CCC(C)Oc1ccc(N2CCC(Oc3ccc([C@H](C)NC(C)=O)cc3)C2)cc1` (stereo partly drawn) [Example 4.3], the pIC50 is 6.77.

`C[C@H](NC(=O)Cc1cc[nH]c1)c1ccc(O[C@@H]2CCN(c3ccc(OCC4CC4)cc3)C2)cc1` [Example 2.12]: the pIC50 is 6.40. Compared with the last compound, the pIC50 is 0.37 log units lower.

Compound `C[C@H](NC(=O)C1(C)CC1)c1ccc(O[C@@H]2CCN(c3ccc(OCC4CC4)cc3)C2)cc1` [Example 2.10] gave a pIC50 of 7.10.

Compound `C[C@H](NC(=O)c1cnn(C(F)F)c1)c1ccc(O[C@@H]2CCN(c3ccc(OCC4CC4)cc3)C2)cc1` [Example 2.46] showed a pIC50 of 6.42.

`CNC(=O)N[C@@H](C)c1ccc(OC2CCN(c3ccc(OC(C)C)cc3)C2)cc1` (stereo partly drawn) [Example 3.9] showed a pIC50 of 6.69.

`C[C@H](NC(=O)c1cnn(C)c1)c1ccc(O[C@@H]2CCN(c3ccc(OCC4CC4)cc3)C2)cc1` [Example 2.11] had a pIC50 of 6.88.
